“Also recorded” adds a separate entry of the source.
How the values were obtained:
[1] = test system: 451Lu metastatic melanoma cells; assay: Proliferation assay (fluorimetric, 4-methylumbelliferyl heptanoate, MUH), monolayer culture; assay type: cell-based, human; conditions: 451Lu monolayer; wortmannin 2-20 μM, BAY 43-9006 1-7 μM; MUH fluorescence
Experimental: Cells were seeded as triplicates in 96 well plates at a density of 1,500 cells per well in 150 μl medium (1×10^4 cells per ml). The PI3K inhibitor wortmannin (Sigma, Steinheim, Germany) was directly added to the culture medium at concentrations ranging from 2-20 μM. BAY 43-9006 was added directly to the culture medium at concentrations ranging from 0.5-7 μM. Culture medium, cells treated with culture medium, and cells treated with culture medium with the addition of DMSO served as controls. Assay was started at timepoints indicated. Medium was discarded and each well was washed two times with PBS (without Ca2+ and Mg2+) and 100 μl of a solution containing 100 μg MUH (4-methylumbelliferyl-hepanoat)/ml PBS was added. Plates were incubated at 37° C. for one hour and measured in a Fluoroskan II (Labsystems, Helsinki), with an […]. The intensity of fluorescence indicates the number of vital cells in the wells (18,19).
To analyze the effects of inhibition of either the MAPK or AKT signaling pathways or both together on the proliferation of melanoma cells, we treated the metastatic melanoma cell line 451Lu in monolayer with the PI3K inhibitor wortmannin, BAY 43-9006, or both together. […]
The effect of inhibition of these signaling pathways on cell proliferation was determined by a fluorimetric assay using 4-methylumbelliferyl heptanoate (MUH) (18, 19).

β3 integrin = assay: Immunohistochemistry for β3 integrin in metastatic melanoma reconstructs; assay type: cell-based, human; conditions: Skmel28 and WM451Lu in dermal reconstructs, 4 μM wortmannin, 6 μM BAY 43-9006, alone or combined
Experimental: (§1) The in vitro reconstruction of metastatic melanoma is based on the organotypic human skin culture technique (14). A cell-free buffered collagen solution was prepared consisting of rat tail collagen type I (BD Biosciences, Bedford, Mass., USA) at a final concentration of 1.35 mg/ml in Dulbecco's modified Eagle's medium with 10% FBS. 1.0 ml of the cell-free collagen solution was added to tissue culture inserts (Millicell PC, Millipore, Bedford, Mass., USA) placed in six-well tissue culture plates. While the acellular collagen layer was solidifying, a second collagen solution was prepared similar to the first with the addition of human fibroblasts and the melanoma cells SKMEL28 or 451 LU. Human fibroblasts and human melanoma cells from subconfluent cultures were trypsinised, washed and resuspended in the second collagen solution at a density of 15×10^5/ml and a fibroblast to melanoma cell ratio of 1:1. 3.0 ml of the fibroblast and melanoma cell-containing collagen solution were placed over the solidified acellular collagen layer. After 5 days of incubation at 37° C., the fibroblast contraction force causes the collagen gel to contract. This structure represents the melanoma reconstruct in a dermal equivalent. For submerged culture conditions, 3 ml of melanoma cell culture medium supplemented with 10% FBS were added beneath the insert and 2 ml inside the insert to allow proliferation of the seeded cells. The culture medium was changed every two days. After 10 to 14 days of submerged culture, the melanoma reconstructs were harvested and evaluated.
For blockade of the AKT and MAPK signaling pathways, the PI3K inhibitor wortmannin (Sigma, Steinheim, Germany) and BAY 43-9006 alone or in combination were added directly to the culture medium of the melanoma reconstructs or melanoma cells in monolayer culture at 4 μM and 6 μM, respectively. These concentrations have been described previously to be effective for melanoma cells 6 (16). The culture medium was changed every two days. […]

[2] = test system: Skmel28 metastatic melanoma cells; assay: Active caspase 3 staining (apoptosis) of melanoma reconstructs; assay type: cell-based, human; conditions: Skmel28 in dermal reconstructs; wortmannin, BAY 43-9006 or both
Experimental: as §1, with “For submerged culture conditions, 3 ml of melanoma cell culture medium supplemented with 10% FBS were added beneath the insert and 2 ml inside the insert to allow proliferation of the seeded cells. The culture medium was changed every two days.” left out, “evaluated. […]” for “evaluated.”

MelCAM [3] = assay: Immunohistochemistry for MelCAM in metastatic melanoma reconstructs; assay type: cell-based, human; conditions: Skmel28 and WM451Lu in dermal reconstructs; 4 μM wortmannin, 6 μM BAY 43-9006, alone or combined
Experimental: as §1, with “For submerged culture conditions, 3 ml of melanoma cell culture medium supplemented with 10% FBS were added beneath the insert and 2 ml inside the insert to allow proliferation of the seeded cells. The culture medium was changed every two days.” left out, “evaluated. […]” for “evaluated.”

[4] = test system: Skmel28 metastatic melanoma cells; assay: Ki-67 proliferation marker staining of melanoma reconstructs (organotypic culture); assay type: cell-based, human; conditions: Skmel28 in dermal reconstructs; 4 μM wortmannin, 6 μM BAY 43-9006, alone or combined; 2-3 weeks
Experimental: as §1, with “For submerged culture conditions, 3 ml of melanoma cell culture medium supplemented with 10% FBS were added beneath the insert and 2 ml inside the insert to allow proliferation of the seeded cells. The culture medium was changed every two days.” left out, “evaluated. […]” for “evaluated.”

phospho-AKT (Ser473) = assay: Immunohistochemistry for phosphorylated AKT in melanoma reconstructs; assay type: cell-based, human; conditions: Skmel28 reconstructs; 4 μM wortmannin
Experimental: as §1, with “For submerged culture conditions, 3 ml of melanoma cell culture medium supplemented with 10% FBS were added beneath the insert and 2 ml inside the insert to allow proliferation of the seeded cells. The culture medium was changed every two days.” left out, “evaluated. […]” for “evaluated.”

MelCAM [5] = assay: Flow cytometry of cell surface MelCAM, 451Lu monolayer; assay type: cell-based, human; conditions: 4 μM wortmannin, 6 μM BAY 43-9006, alone or combined, 96 hours
Experimental: (§2) For blockade of the AKT and MAPK signaling pathways, the PI3K inhibitor wortmannin (Sigma, Steinheim, Germany) and BAY 43-9006 alone or in combination were added directly to the culture medium of the melanoma reconstructs or melanoma cells in monolayer culture at 4 μM and 6 μM, respectively. […] The culture medium was changed every two days. Melanoma reconstructs treated with culture medium or culture medium with the addition of DMSO served as controls. All experiments were done as duplicates and were repeated twice.
(§3) Surface proteins of 1×10^5-1×10^6 451Lu metastatic melanoma cells were stained as follows: Cells were pelleted for 5 min at 1,800 rpm (Heraeus variofuge 3.0R), blocked with 1×PBS/1% BSA, and after centrifugation incubated with antibodies against MeI-CAM (QBiogene-Alexis) or avβ3 integrin (BD Biosciences, Heidelberg) for 15 minutes at room temperature. Cells were washed with 1×PBS/1% BSA and subsequently incubated with anti mouse IgG-FITC (BD Biosciences, Heidelberg) or mouse IgG-isotype control-FITC alone (BD Biosciences, Heidelberg). After washing and pelleting the cells, the cell pellet was resuspended in 1×PBS and measured in a FACScalibur (BD Bioscienses, Heidelberg).
(§4) Furthermore, we examined whether inhibition of these signaling pathways affected expression of the adhesion molecules MelCAM and avβ3 known to play a key role in melanoma cell invasion. […]

[6] = test system: Skmel28 metastatic melanoma cells; assay: Invasive melanoma growth in human dermal reconstructs (hematoxylin staining); assay type: cell-based; conditions: 4 μM wortmannin; for invasive melanoma growth (number and size of melanoma cell nests): 6 μM BAY 43-9006, alone or combined
Experimental: as §1
For blockade of the AKT and MAPK signaling pathways, the PI3K inhibitor wortmannin (Sigma, Steinheim, Germany) and BAY 43-9006 alone or in combination were added directly to the culture medium of the melanoma reconstructs or melanoma cells in monolayer culture at 4 μM and 6 μM, respectively. These concentrations have been described previously to be effective for melanoma cells 6 (16). The culture medium was changed every two days. Melanoma reconstructs treated with culture medium or culture medium with the addition of DMSO served as controls. All experiments were done as duplicates and were repeated twice.
Melanoma reconstructs were fixed with 4% formaldehyde for 8-9 h, dehydrated, and embedded in paraffin. Paraffin sections were stained with hematoxylin for routine light microscopy. […]
Finally, we determined whether the inhibition of the PI3K/AKT signaling pathway and the MAP kinase signaling pathway is able to affect invasive melanoma growth in a physiological context. […]

avβ3 integrin = assay: Flow cytometry of cell surface avβ3 integrin, 451Lu monolayer; assay type: cell-based, human; conditions: 4 μM wortmannin, 6 μM BAY 43-9006, alone or combined, 96 hours
Experimental: as §2, §3, §4

[7] = test system: phospho-ERK (phospho-p44/42 MAP kinase, Thr202/Tyr204); assay: Immunohistochemistry for phosphorylated ERK in melanoma reconstructs; assay type: cell-based, human; conditions: Skmel28 reconstructs; 6 μM BAY 43-9006
Experimental: as §1, with “For submerged culture conditions, 3 ml of melanoma cell culture medium supplemented with 10% FBS were added beneath the insert and 2 ml inside the insert to allow proliferation of the seeded cells. The culture medium was changed every two days.” left out, “evaluated. […]” for “evaluated.”

| SMILES | effect on number of proliferating (vital) cells / proliferation rate [1] | expression of β3 integrin (β3 integrin) | expression of β3 integrin (β3 integrin; listed as Wortmannin) | active caspase 3 (ongoing apoptosis) [2] | expression of MelCAM (MelCAM [3]) | cell proliferation (Ki-67 staining) [4] | inhibition of phosphorylation of AKT (phospho-AKT (Ser473)) | cell surface expression of MelCAM (MelCAM [5]) | cohesion of melanoma cells (melanoma-melanoma cell adhesion) [6] | morphology of melanoma cells [6] | invasive melanoma growth (number and size of melanoma cell nests) [6] | cell surface expression of avβ3 integrin (avβ3 integrin) | inhibition of phosphorylation of ERK (MAP-kinase pathway) [7] |
| --- | --- | --- | --- | --- | --- | --- | --- | --- | --- | --- | --- | --- | --- |
| COC[C@H]1OC(=O)c2coc3c2[C@@]1(C)C1=C(C3=O)[C@@H]2CCC(=O)[C@@]2(C)C[C@H]1OC(C)=O [wortmannin] | Little or no effect on the number of proliferating cells; also recorded: no significant effect on the number of proliferating cells | not altered | not affected | active caspase 3 was found in the majority of Skmel28 metastatic melanoma cells | downregulated the expression of MelCAM | little or no effect on proliferation rate | effective in the inhibition of phosphorylation | downregulates the expression of the adhesion molecules MelCAM; also recorded: down-regulates cell surface expression of MelCAM | decreased | multidendritic morphology; also recorded: multidendritic phenotype | reduced invasive tumor growth; also recorded: number and size of melanoma cell nests were reduced |  |  |
| CNC(=O)c1cc(Oc2ccc(NC(=O)Nc3ccc(Cl)c(C(F)(F)F)c3)cc2)ccn1 [BAY 43-9006, 4{4-[3-(4-chloro-3-trifluoromethylphenyl)-ureido]-phenoxy}-pyridine-2-carboxylic acid methyl amide] | significantly reduced; also recorded: significant decrease in cell proliferation | significantly reduced; also recorded: substantially reduced β3 integrin expression |  | active caspase 3 was found in the majority of Skmel28 metastatic melanoma cells | not affected; also recorded: did not appear to affect MelCAM expression | significant decrease in cell proliferation |  |  |  |  | reduced invasive tumor growth; also recorded: reduced number and size of melanoma cell nests | down-regulates the expression of avβ3 integrin; also recorded: down-regulated | effective in the inhibition of phosphorylation |
